Data reported in ChEMBL document CHEMBL1201862, “PubChem BioAssay data set” (2004).
Activity calls are given as the source filed them.

Legend:
Genome polyprotein [1] = target: Genome polyprotein (Hepatitis C virus, UniProt Q2Q167); experiment: HCV core protein dimerization inhibitors, dose response, biochemical, TR-FRET (AID 2159); set-up: species or system Hepacivirus hominis;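 further: blocks dimerization of HCV core protein measured by TR-FRET between tagged core106 pairs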
[2] = inhibitors of firefly luciferase expression or activity, dose response, H4 neuroglioma cells, luminescence (AID 1990); assay type: functional, cell-based
[3] = target: T1, Photoreceptor-specific nuclear receptor (Homo sapiens, UniProt Q9Y5X4); assay type: functional;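 further: potency for compounds that break the NR2E3 corepressor complex and count as activators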
[4] = Luminescence Cell-Based Dose Response HTS to Identify Inhibitors of 5'UTR Stem-Loop Driven Prion Protein mRNA Translation in H4 Neuroglioblastoma Cells. [Related pubchem assays: 1827 (Project Summary), 1813 (Primary HTS)]; assay type: functional
[5] = inhibitors of SNCA 5'UTR-driven reporter translation, confirmation, H4 neuroglioma cells, luminescence (AID 1988); assay type: functional, cell-based
Beta-lactamase [6] = target: Beta-lactamase (Pseudomonas aeruginosa, UniProt Q79MP6);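 further: biochemical dose-response test of metallo-beta-lactamase enzyme inhibition, read out by epi-absorbance; purified recombinant IMP-1 metallo-beta-lactamase with nitrocefin as substrate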
[7] = target: T2, Peroxisome proliferator-activated receptor gamma/Nuclear receptor corepressor 2 (Homo sapiens, UniProt P37231+Q9Y618); assay type: functional
Beta-lactamase [8] = target: Beta-lactamase (Salmonella choleraesuis (strain SC-B67), UniProt Q5J463)
[9] = Cytotoxicity screening for potential Inhibitors of Bacterial Capsule Biogenesis. [Related pubchem assays (depositor defined):AID488970]; assay type: functional
[10] = target: Histone-lysine N-methyltransferase NSD2 (Homo sapiens, UniProt O96028); assay type: biochemical
[11] = target: T2, Peroxisome proliferator-activated receptor gamma/Nuclear receptor corepressor 2; experiment: Counterscreen for NR2E3 inverse agonists: TR-FRET-based biochemical high throughput dose response assay to identify inverse agonists of the interaction between peroxisome proliferator-activated receptor gamma (PPARg) and nuclear receptor co-repressor 2 (NCOR2).; assay type: functional
[12] = target: T1, Photoreceptor-specific nuclear receptor; experiment: NR2E3 inverse agonists, dose response, biochemical, TR-FRET (AID 463256); assay type: functional
[13] = M. tuberculosis growth inhibition, HTS (AID 449762); assay type: functional
Ephrin type-A receptor 4 = Ephrin type-A receptor 4 (Mus musculus, UniProt Q03137); experiment: inhibitors of EphA4 binding to KYL peptide, primary screen, biochemical, colorimetric, mouse EphA4 (AID 689); assay type: functional
[14] = target: Heat shock protein HSP 90-alpha (Homo sapiens, UniProt P07900); experiment: Luminescence-based dose response biochemical high throughput screening assay for inhibitors of the Heat Shock Protein 90 (HSP90). [Related pubchem assays: 1831 (Summary AID.), 1846 (Confirmation screen.), 1789 (Primary screen.)]
[15] = target: T3, RNA-binding protein pos-1 (Caenorhabditis elegans, UniProt G5EF15); experiment: inhibitors of POS-1/mex-3 RNA binding, dose response, biochemical, fluorescence polarization (AID 1964);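 further: purified POS-1 fused to maltose binding protein made in E. coli; potency of compounds blocking POS-1 binding to fluorescent RNA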
T3 sequence (G5EF15 whole entry): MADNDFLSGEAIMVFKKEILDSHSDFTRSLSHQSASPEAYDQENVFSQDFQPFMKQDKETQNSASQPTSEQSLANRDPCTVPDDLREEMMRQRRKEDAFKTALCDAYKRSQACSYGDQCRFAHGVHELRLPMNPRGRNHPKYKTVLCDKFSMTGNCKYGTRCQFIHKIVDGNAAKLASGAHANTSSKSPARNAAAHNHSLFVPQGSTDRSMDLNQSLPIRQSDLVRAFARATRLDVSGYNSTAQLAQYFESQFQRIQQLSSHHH

Bcl-2-like protein 10 = target: T4, Bcl-2-like protein 10 (Homo sapiens, UniProt Q9HD36); experiment: displacers of TR3 peptide from Bcl-B, primary screen, selectivity assay for Bfl-1 inhibitor project, biochemical, fluorescence polarization, FITC-TR3 peptide (AID 748);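 further: fluorescence polarization from a fluorescein-labelled TR3 peptide binding purified Bcl-B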
T4 sequence (Q9HD36 whole entry): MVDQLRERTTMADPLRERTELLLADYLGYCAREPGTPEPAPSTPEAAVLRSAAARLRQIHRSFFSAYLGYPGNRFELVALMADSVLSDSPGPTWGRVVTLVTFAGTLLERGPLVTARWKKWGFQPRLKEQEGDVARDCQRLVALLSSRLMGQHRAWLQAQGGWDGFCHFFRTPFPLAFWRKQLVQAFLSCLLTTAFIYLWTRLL

[16] = target: T5, Zinc finger protein mex-5 (Caenorhabditis elegans, UniProt Q9XUB2); experiment: MEX-5/TCR-2 RNA interaction inhibitors, dose response, biochemical, C. elegans, fluorescence polarization (AID 1960)
T5 sequence (Q9XUB2 whole entry): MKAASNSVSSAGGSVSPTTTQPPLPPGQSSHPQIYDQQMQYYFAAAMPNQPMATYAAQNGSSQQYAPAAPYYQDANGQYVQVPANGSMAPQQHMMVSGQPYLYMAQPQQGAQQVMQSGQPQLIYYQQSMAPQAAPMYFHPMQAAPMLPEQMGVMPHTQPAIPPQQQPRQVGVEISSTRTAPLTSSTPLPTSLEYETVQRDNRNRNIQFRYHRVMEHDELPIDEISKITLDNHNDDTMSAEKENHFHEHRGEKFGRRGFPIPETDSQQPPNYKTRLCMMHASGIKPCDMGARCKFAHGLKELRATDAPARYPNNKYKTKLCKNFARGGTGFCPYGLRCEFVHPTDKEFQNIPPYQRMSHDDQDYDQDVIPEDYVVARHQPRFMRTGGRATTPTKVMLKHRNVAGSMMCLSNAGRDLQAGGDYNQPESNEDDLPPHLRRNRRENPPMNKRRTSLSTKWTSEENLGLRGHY

14-3-3 protein gamma = 14-3-3 protein gamma (Homo sapiens, UniProt P61981); experiment: modulators of 14-3-3 gamma client binding – dose response (AID 711); assay type: functional
[17] = target: T6, Replicative DNA helicase DnaB (Mycobacterium tuberculosis, UniProt P9WMR3); experiment: DnaB intein splicing inhibitors, dose response, biochemical, cell-free fluorescence (AID 449749); assay type: functional
T6 sequence (P9WMR3 whole entry): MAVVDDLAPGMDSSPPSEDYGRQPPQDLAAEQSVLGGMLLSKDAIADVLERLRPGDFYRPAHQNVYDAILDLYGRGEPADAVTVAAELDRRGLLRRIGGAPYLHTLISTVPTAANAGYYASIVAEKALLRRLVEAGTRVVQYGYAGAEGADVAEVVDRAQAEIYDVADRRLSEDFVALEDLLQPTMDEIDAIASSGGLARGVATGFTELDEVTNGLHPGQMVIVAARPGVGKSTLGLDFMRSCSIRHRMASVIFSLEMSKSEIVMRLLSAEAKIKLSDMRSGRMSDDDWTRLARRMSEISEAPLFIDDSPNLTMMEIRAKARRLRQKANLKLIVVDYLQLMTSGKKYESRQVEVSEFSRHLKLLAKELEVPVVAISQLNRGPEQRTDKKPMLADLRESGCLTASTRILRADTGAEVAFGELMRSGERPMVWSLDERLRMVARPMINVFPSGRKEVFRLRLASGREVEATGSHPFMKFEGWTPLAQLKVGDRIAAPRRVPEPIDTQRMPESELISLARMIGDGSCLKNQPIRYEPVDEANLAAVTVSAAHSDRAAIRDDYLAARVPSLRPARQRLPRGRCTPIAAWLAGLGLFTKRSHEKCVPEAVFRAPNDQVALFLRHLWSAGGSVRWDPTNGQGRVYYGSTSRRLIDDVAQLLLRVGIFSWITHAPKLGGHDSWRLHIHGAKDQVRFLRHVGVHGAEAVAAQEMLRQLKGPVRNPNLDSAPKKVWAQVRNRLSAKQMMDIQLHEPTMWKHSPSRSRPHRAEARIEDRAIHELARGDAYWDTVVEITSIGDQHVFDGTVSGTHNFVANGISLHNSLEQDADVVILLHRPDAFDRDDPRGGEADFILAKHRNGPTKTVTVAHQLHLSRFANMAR

Protein RecA = target: T7, Protein RecA (Mycobacterium tuberculosis, UniProt P9WHJ3); experiment: Fluorescence Cell-Free Homogeneous Dose Retest to Identify Inhibitors of RecA-Intein Splicing Activity. [Related pubchem assays (depositor defined):AID2097, AID2223, AID489010, AID492950]; assay type: functional
T7 sequence (P9WHJ3 whole entry): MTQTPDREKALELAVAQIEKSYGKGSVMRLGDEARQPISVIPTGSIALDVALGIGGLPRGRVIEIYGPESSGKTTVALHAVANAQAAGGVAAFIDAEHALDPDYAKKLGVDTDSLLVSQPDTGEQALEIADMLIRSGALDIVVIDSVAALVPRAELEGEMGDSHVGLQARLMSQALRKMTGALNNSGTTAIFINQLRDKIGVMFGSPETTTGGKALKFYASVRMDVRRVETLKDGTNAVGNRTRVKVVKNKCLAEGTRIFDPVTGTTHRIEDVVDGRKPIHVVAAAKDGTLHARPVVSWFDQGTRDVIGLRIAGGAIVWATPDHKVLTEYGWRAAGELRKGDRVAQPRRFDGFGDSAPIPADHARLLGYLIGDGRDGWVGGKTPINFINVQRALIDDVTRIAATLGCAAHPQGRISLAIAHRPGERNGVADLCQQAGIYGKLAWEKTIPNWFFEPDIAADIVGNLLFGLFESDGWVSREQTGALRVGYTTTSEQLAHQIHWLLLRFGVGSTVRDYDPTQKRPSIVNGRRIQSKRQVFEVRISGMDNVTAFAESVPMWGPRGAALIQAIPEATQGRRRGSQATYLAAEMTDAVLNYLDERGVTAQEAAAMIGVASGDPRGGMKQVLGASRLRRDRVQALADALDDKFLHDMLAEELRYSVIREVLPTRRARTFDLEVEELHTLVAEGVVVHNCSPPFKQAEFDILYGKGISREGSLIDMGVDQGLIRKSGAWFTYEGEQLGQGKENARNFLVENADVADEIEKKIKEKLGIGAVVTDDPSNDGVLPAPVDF

Genome polyprotein [18] = target: Genome polyprotein (dengue virus type 2, UniProt P29990); experiment: Dengue-2 NS5 methyltransferase inhibitors, primary screen, biochemical, confirmation dose response (AID 588689); assay type: functional
[19] = Artemis endonuclease inhibitor potency, dose response, biochemical, fluorescence intensity (AID 720701); assay type: functional;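 further: Artemis endonuclease enzyme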
Fibrinogen beta chain [20] = target: T8, Fibrinogen beta chain (Homo sapiens, UniProt P02675); experiment: Fluorescence polarization-based biochemical high throughput dose response assay to identify inhibitors that disrupt the binding of a cyclic peptide (Tn6) to the fibrin proteolytic product D-Dimer and fragment E complex [DD(E )].
T8 sequence (P02675 whole entry): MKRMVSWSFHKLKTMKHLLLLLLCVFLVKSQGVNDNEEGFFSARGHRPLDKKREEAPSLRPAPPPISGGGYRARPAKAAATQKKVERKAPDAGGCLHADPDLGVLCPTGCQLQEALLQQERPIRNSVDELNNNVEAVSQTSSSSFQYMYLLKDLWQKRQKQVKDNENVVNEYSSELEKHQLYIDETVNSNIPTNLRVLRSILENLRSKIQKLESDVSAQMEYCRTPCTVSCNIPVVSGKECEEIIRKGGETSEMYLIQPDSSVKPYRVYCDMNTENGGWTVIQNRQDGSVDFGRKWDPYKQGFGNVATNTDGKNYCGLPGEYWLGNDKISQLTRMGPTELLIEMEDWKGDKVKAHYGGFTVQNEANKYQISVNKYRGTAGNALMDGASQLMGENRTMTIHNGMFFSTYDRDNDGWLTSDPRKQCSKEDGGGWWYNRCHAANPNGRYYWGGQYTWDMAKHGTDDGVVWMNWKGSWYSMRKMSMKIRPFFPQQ

[21] = target: Tyrosyl-DNA phosphodiesterase 2 (Homo sapiens, UniProt O95551); experiment: human TDP2 enzyme inhibitors, dose response, biochemical, epi absorbance, IC50 (AID 743297)
Fibrinogen beta chain [22] = target: T8, Fibrinogen beta chain; experiment: Fluorescence polarization-based biochemical high throughput dose response assay to identify inhibitors that disrupt the binding of a cyclic peptide (Tn7) to the fibrin proteolytic product D-Dimer and fragment E complex [DD(E )].
[23] = target: T9, Low molecular weight phosphotyrosine protein phosphatase (Homo sapiens, UniProt P24666); experiment: LMPTP phosphatase inhibitors, dose response, biochemical, OMFP substrate, fluorescence intensity, set 2 (AID 743307); assay type: functional
T9 sequence (P24666 whole entry): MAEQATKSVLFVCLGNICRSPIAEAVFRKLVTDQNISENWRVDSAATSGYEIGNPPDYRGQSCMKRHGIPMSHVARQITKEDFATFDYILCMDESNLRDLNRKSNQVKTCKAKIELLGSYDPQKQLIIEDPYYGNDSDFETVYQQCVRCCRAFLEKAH

[24] = target: T9, Low molecular weight phosphotyrosine protein phosphatase; experiment: LMPTP phosphatase inhibitors, colorimetric pNPP readout, dose response, orthogonal assay, biochemical, absorbance, pNPP substrate, LMPTP-A isoform, set 2 (AID 743308); assay type: functional
Danio rerio = experiment: In Vivo Angiogenesis Dose-Response Confirmation. [Related pubchem assays: 732 (Assay preceding this confirmatory assay.)]; assay type: functional, organism-based

T2 sequence (P37231 whole entry): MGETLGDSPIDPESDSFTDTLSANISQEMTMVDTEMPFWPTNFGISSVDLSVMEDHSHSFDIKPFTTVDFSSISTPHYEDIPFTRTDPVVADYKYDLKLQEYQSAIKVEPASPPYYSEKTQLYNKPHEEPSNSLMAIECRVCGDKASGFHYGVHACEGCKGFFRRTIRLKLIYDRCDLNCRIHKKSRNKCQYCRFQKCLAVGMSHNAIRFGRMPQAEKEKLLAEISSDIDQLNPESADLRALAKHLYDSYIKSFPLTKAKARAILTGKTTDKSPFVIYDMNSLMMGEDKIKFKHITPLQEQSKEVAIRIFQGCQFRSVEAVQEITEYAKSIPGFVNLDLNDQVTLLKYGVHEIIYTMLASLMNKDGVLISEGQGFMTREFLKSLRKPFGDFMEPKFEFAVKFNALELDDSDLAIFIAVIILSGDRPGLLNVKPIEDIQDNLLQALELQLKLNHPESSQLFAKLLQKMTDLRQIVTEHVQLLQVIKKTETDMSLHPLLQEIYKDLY
T2 sequence (Q9Y618 whole entry): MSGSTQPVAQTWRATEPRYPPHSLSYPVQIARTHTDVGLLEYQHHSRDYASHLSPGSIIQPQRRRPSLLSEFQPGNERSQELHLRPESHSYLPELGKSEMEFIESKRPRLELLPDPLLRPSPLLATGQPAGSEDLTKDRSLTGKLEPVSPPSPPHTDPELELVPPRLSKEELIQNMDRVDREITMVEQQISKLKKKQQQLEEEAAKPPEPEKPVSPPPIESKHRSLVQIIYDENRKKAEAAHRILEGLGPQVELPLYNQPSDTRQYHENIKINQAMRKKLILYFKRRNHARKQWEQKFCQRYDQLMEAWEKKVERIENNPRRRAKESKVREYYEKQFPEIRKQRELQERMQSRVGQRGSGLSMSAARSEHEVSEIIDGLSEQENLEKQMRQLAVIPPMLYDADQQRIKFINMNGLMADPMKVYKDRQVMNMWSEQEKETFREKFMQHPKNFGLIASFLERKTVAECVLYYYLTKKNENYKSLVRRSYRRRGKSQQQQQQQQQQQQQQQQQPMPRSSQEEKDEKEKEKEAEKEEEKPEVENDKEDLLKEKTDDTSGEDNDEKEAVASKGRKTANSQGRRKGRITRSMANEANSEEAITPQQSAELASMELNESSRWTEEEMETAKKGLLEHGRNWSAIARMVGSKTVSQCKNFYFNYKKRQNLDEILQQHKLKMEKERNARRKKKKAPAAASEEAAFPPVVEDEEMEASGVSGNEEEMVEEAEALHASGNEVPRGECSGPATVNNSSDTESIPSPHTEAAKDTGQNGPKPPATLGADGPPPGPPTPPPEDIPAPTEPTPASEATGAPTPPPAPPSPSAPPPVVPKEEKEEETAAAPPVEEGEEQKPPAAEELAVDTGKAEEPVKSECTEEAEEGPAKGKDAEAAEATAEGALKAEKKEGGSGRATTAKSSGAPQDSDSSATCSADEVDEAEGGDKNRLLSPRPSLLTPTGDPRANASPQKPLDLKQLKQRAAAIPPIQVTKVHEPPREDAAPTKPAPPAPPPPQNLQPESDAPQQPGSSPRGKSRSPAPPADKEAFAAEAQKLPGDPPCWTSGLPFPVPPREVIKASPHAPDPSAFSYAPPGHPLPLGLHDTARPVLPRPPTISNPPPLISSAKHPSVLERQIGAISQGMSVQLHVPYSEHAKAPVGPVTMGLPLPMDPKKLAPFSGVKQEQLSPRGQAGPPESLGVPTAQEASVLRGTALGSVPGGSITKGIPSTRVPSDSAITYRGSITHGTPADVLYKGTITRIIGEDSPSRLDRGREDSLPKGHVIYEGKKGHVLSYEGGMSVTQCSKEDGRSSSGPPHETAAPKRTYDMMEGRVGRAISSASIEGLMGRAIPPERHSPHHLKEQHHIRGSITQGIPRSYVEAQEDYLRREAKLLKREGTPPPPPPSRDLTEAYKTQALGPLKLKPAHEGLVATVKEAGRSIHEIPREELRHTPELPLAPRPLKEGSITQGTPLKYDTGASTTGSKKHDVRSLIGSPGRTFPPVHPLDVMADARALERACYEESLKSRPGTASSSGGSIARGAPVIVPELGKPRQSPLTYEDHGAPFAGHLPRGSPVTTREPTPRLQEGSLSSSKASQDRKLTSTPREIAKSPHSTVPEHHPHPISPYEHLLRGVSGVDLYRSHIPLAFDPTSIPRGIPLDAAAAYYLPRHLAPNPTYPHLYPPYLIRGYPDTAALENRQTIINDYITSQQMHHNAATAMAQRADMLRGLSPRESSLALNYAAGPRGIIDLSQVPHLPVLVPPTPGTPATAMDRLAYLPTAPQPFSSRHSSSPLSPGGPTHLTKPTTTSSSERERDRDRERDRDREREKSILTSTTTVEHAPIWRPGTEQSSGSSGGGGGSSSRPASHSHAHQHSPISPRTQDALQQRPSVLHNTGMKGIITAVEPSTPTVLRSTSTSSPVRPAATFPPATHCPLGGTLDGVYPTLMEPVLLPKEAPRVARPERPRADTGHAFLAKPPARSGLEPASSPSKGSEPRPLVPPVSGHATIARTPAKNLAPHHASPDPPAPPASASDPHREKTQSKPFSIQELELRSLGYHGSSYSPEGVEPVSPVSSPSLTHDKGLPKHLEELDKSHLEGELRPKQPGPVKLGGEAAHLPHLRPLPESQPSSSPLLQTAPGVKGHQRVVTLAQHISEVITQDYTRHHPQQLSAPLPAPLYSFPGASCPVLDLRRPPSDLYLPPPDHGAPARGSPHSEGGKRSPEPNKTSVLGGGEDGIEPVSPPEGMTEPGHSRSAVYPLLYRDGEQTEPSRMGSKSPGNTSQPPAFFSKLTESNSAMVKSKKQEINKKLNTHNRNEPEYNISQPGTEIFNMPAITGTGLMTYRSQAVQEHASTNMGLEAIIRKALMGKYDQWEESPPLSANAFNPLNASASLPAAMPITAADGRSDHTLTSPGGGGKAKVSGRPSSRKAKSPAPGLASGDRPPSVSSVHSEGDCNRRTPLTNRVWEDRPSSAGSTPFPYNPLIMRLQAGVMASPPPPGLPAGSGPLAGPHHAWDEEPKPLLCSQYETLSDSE
T1 sequence (Q9Y5X4 whole entry): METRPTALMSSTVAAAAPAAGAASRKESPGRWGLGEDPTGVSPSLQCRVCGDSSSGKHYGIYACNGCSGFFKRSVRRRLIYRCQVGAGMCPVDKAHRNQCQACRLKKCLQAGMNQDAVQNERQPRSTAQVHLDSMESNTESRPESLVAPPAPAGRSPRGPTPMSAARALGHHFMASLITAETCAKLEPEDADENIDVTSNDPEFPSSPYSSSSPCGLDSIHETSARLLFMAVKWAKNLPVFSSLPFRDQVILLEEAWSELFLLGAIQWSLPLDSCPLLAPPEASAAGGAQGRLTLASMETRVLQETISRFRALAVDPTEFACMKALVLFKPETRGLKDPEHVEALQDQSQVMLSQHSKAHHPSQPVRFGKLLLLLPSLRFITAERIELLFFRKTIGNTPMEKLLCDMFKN
Sequence of Genome polyprotein (dengue virus type 2, UniProt P29990) (P29990 2492-3391 limits assumed): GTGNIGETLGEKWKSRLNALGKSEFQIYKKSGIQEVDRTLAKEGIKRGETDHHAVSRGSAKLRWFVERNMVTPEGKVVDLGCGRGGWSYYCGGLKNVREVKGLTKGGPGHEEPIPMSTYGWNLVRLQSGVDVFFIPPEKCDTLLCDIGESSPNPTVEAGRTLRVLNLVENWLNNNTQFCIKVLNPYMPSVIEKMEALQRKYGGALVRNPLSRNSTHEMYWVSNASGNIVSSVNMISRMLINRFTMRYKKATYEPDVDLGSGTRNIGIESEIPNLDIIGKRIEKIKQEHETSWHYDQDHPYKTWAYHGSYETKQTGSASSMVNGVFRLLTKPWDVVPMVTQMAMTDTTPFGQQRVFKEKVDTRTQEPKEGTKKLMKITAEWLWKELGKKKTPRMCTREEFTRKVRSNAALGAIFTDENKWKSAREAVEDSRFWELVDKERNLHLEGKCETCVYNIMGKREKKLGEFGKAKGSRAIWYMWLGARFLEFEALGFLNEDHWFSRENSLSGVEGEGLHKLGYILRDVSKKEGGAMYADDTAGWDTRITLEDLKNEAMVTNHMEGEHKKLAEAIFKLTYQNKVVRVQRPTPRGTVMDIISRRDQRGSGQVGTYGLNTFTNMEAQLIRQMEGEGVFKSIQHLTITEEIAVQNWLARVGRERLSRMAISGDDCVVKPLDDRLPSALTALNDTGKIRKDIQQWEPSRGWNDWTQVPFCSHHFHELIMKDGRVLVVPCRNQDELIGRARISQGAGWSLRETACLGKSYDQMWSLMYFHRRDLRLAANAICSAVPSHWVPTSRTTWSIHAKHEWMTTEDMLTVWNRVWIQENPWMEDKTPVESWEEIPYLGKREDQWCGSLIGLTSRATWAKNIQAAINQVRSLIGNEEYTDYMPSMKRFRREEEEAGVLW
Sequence of Tyrosyl-DNA phosphodiesterase 2 (O95551 whole entry, the tested form may be a part): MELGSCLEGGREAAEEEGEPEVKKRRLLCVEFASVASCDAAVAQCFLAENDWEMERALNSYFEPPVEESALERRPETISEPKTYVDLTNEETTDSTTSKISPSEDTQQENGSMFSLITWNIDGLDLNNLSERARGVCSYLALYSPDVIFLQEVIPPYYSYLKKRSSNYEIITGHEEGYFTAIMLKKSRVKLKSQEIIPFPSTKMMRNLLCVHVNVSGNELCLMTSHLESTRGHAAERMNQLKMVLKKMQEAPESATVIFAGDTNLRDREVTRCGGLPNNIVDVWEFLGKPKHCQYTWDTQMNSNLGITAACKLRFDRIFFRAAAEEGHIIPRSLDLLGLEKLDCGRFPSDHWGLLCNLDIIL
Sequence of Genome polyprotein (Hepatitis C virus, UniProt Q2Q167) (Q2Q167 whole entry): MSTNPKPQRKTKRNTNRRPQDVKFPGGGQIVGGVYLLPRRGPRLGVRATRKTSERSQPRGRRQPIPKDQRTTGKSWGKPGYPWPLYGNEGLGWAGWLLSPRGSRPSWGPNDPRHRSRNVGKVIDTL
Sequence of 14-3-3 protein gamma (P61981 whole entry): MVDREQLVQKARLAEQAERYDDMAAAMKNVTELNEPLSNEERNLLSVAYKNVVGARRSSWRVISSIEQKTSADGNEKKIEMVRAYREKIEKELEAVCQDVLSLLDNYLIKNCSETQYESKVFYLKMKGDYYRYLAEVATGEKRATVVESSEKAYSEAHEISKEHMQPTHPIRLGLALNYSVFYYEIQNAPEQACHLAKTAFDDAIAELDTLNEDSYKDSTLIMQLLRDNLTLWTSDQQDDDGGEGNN

Structure (SMILES): CCN(CC)c1ccc2c(-c3ccc(S(=O)(=O)O)cc3S(=O)(=O)[O-])c3ccc(=[N+](CC)CC)cc-3oc2c1
- IC50 (Genome polyprotein [1]): > 49.8 µM (not active)
- EC50 [2]: 11.7 µM (active)
- IC50 [3]: > 39.8 µM (not active)
- EC50 [4]: 11.4 µM (active)
- EC50 [5]: 9.58 µM (active)
- IC50 (Beta-lactamase [6]): > 59.6 µM (inactive)
- IC50 [7]: 1.02 µM (active)
- IC50 (Beta-lactamase [8]): > 59.6 µM (inactive)
- CC50 [9]: 18.4 µM (active)
- AC50 [10]: > 20 µM (inactive)

Structure (SMILES): Cc1ccc(-c2cc(C(=O)NCc3cnn(C)c3)c3cc(Br)ccc3n2)cc1
- IC50 [11]: 1.56 µM (active)
- IC50 [12]: 2.99 µM (active)

Structure (SMILES): O=C(COc1cc(O)c2c(=O)c3ccccc3oc2c1)OCc1ccccc1
- IC50 [13]: > 100 µM (active)

Structure (SMILES): CCN(CCNC(=O)C1CCCN(S(=O)(=O)CC)C1)c1ccccc1 (centres undefined)
- IC50 (Ephrin type-A receptor 4): > 100 µM (not active)

Structure (SMILES): CC(=O)c1ccc(N=Nc2c(C)[nH]n(-c3ccccc3)c2=O)cc1
- IC50 [14]: 4.4 µM (active)

Structure (SMILES): COc1cc(NCCCC(C)N)c2ncccc2c1 (centres undefined)
- EC50 [15]: 42.5 µM (active)
- IC50 (Bcl-2-like protein 10): 8.47 µM (active)
- EC50 [16]: 34.3 µM (active)
- IC50 (14-3-3 protein gamma): > 50 µM (not active)
- AC50 [17]: 4.78 µM (active)
- EC50 (Protein RecA): 420 nM (active)
- IC50 (Genome polyprotein [18]): > 100 µM (active)
- IC50 [19]: > 20 µM (inactive)
- IC50 (Fibrinogen beta chain [20]): 54.4 µM (inactive)
- IC50 [21]: 49.2 µM (inactive)
- IC50 (Fibrinogen beta chain [22]): > 83.3 µM (inactive)

Structure (SMILES): CN(C)CCNc1nc(-c2ccccc2)nc2ccccc12
- IC50 [23]: 58.1 µM (inactive)
- IC50 [24]: > 80 µM (inactive)

Structure (SMILES): COc1cc2ncnc(Nc3cccc(Cl)c3)c2cc1OC [TYRPHOSTIN AG-1478]
- IC50 (Danio rerio): 12.7 µM (not active)
